Measured values from publication PMC8837603, “Lapcin, a potent dual topoisomerase I/II inhibitor discovered by soil metagenome guided total chemical synthesis” (Nature Communications, 2022).

Experiments:
[1] = system: Escherichia coli ATCC25922; test: MIC assay, Escherichia coli; type: cell-based; conditions: LB, 16 h, 37 °C, n = 2
Method: (§1) Lapcin was tested for antimicrobial activity against the bacteria and fungi shown in Supplementary Table 4. […] Lapcin was dissolved in sterile DMSO to make a 3.2 mg/mL working solution. Lapcin was diluted across 96-well plates using a 2-fold serial dilution method to give a concentration range of 64 to 0.06 µg/mL in 50 µL of LB broth. A single colony of each test organism was grown in either 5 mL LB (bacteria) or YPD (fungi) medium overnight at 37 °C or 30 °C, respectively. Saturated overnight cultures were diluted 5,000-fold, and then 50 µL of dilute cells were transferred into each well of the assay plates. Finally, each well contains a total volume of 100 µL.

[2] = system: Acinetobacter baumannii ATCC17978; conditions: LB, 16 h, 37 °C, n = 2
Method: as §1

[3] = system: Enterobacter cloacae ATCC13047; conditions: LB, 16 h, 37 °C, n = 2
Method: as §1

[4] = system: Klebsiella pneumonia ATCC10031; conditions: LB, 16 h, 37 °C, n = 2
Method: as §1

[5] = system: Candida albicans ATCC76485; test: MIC assay, Candida albicans; type: cell-based; conditions: YPD, 16 h, n = 2
Method: as §1

CCCCCCCCCCCC(O)CC(=O)N[C@@H](C)C(=O)N[C@@H](CO)C(=O)N[C@@H](C)C(=O)Nc1ccc(-c2nc(-c3nc(C(=O)N[C@@H](CC(N)=O)C(=O)Nc4ccc(C(=O)Nc5ccc(C(=O)Nc6ccc(C(=O)O)cc6)c(O)c5OC(C)C)cc4)cs3)cs2)cc1 (stereo partly drawn) [Lapcin, 4-(4-(4-((2S)-4-amino-2-(2'-(4-((2S)-2-((2S)-3-hydroxy-2-((2S)-2-(3-hydroxytetradecanamido)propanamido)propanamido)propanamido)phenyl)-[2,4'-bithiazole]-4-carboxamido)-4-oxobutanamido)benzamido)-2-hydroxy-3-isopropoxybenzamido)benzoic acid]
> 32 µg/mL: MIC, Escherichia coli [1] | MIC, Acinetobacter baumannii [2] | MIC, Enterobacter cloacae [3] | MIC, Klebsiella pneumonia [4] | MIC, Candida albicans [5]
